# Entries after “also recorded” stand apart in the source; their conditions may differ.
# Key:
# MCF7 = experiment: Mammosphere growth, Luminal A breast cancer cells; format: cell-based; details: MCF7, 10 nM GC-1, 5 days
# [1] = tested on: SW1736, 8505C, OCUT2, and KTC-2 cells; experiment: Cell migration by scratch (wound healing) assay, inhibitors with or without GC-1; format: cell-based, human; details: KTC-2 cells, GC-1 10^−8M plus 0.5 μM Buparlisib
# Description: Migration Assay. Cell migration was determined by wound healing assay. Cells were plated and allowed to grow to 100% confluency. Four hours prior to scratching, cells were treated with […] Mitomycin C. A scratch was performed with a P1000 pipette tip and debris was washed away with PBS. […] Images were obtained at 0, 16, 24, 48, and 72 hours or until 100% wound closure, depending on the cell type. The wound closure was measured using the ImageJ macro “Wound Healing Tool” (https://github.com/MontpellierRessourcesImagerie/imagej_macros_and_scripts/wiki/Wound-Healing-Tool). Percent closure was calculated relative to the area of the initial scratch.
# [2] = tested on: MDA-MB-468 cells (EV, TRβ); experiment: Relative cell growth by cell counting, triple negative breast cancer cells; format: cell-based; details: MDA-MB-468-TRβ, 10 nM GC-1, 8 days
# Source text: MDA-MB-468 cells were transduced with empty vector (EV) (FIGS. 29A, 29C) or thyroid hormone receptor beta (TRβ) (FIGS. 29B, 29D) and maintained in complete media. […] Data are mean+/−SD; * indicates p<0.05 determined by t-test.
# [3] = tested on: SW1736 cells (SW-EV, SW-TRβ); experiment: Buparlisib with or without GC-1, cell viability/growth, 24 hr; format: cell-based, human
# Description: SW1736 cells transduced with lentiviral vector (EV) or lentiviral vector containing TRβ (TRβ) were treated with buparlisib (0 μM, 0.1 μM, 1 μM, or 10 μM) for 24 hours.
# [4] = tested on: MDA-MB-468 cells (EV, TRβ); experiment: Mammosphere growth, triple negative breast cancer cells; format: cell-based
# Source text: Data are mean+/−SD; * indicates p<0.05 determined by t-test.
# KTC-2 [5] = experiment: Xenograft model of anaplastic thyroid tumor; format: in vivo, SCID female mice; details: KTC-2 subcutaneous xenograft, GC-1 0.3 mg/Kg, Buparlisib 5 mg/Kg, approximately 6 week study
# Description: Doses of Buparlisib tested in xenograft studies range from 5 mg/Kg to 20 mg/Kg.
# Drugs were prepared at concentrations suitable for intraperitoneal (i.p.) injection of 5 μL/g body weight. […] Drug stocks were prepared by dissolving sobetirome and Sob-AM2 at 1 mg/mL in dimethyl sulfoxide (DMSO). […] Vehicles were prepared with 20% DMSO in saline.”
# Buparlisib was used as a 5 mg/kg buparlisib treatment (recommended by Novartis). Buparlisib suspension was prepared in 0.5% methyl cellulose and 0.5% Tween20.
# Tumors were established by subcutaneous injection of 5×10^6 tumor cells in 100 μL of phosphate-buffered saline into the flank region into SCID female mice. Thyroid cancer occurs in females ˜4× more often than in males. As funding is available; both males and females will be tested.
# The study was approximately a 6 week study. Tumor mass was measured, and tumors and tissues were saved for IHC and RNAseq.
# [6] = tested on: SW1736 cells (SW-EV, SW-TRβ); experiment: LY294002 inhibition of ATC cell migration; format: cell-based, human; details: presence of liganded TRβ (SW-TRβ vs SW-EV)
# Description: Migration Assay. Cell migration was determined by wound healing assay. Cells were plated and allowed to grow to 100% confluency. Two hours prior to scratching, cells were treated with […] Mitomycin C. A scratch was performed with a P1000 pipette tip and debris was washed away with PBS. Migration media was supplemented with 10^−8 M T3. Images were obtained at 0, 24, 48, and 72 hours. Wound closure was measured using ImageJ macro “Wound Healing Tool” (http://dev.mri.cnrs.fr/projects/imagej-macros/wiki/Wound_Healing_Tool). Values were normalized so that the initial scratch was 0% closure.
# TRβ also enhances PI3K inhibitor LY294002 inhibition of ATC cell growth and cell migration. […] LY294002 induces a 50% reduction in growth of normal-like thyroid cells NthyOri in which TRβ is expressed. […] Liganded TRβ suppresses ATC cell growth and migration as a tumor suppressor and critically enhances the effectiveness of a potential therapeutic agent.
# NthyOri = experiment: LY294002 growth of normal-like thyroid cells; format: cell-based; details: normal-like thyroid cells NthyOri in which TRβ is expressed
# [7] = tested on: SW1736 cells (SW-EV, SW-TRβ); experiment: LY294002 inhibition of ATC cell growth; format: cell-based; details: Homo sapiens
# PI3K = PI3K activity by pAkt and p mTOR immunoblot; format: cell-based, human; details: SW-TRβ vs SW-EV, LY294002 24 hr, T3 10^−8 M
# Description: Immunoblot Analysis. Proteins were isolated from whole cells in lysis buffer (20 mM Tris-HCl [pH 8], 137 mM NaCl, 10% glycerol, 1% Triton X-100, and 2 mM EDTA) containing Protease Inhibitor Cocktail 78410 (Thermo Scientific). Proteins were resolved by polyacrylamide gel electrophoresis on 10% sodium dodecyl sulfate gels EC60752 (Life Technologies) and immobilized onto nitrocellulose membranes (GE Healthcare) by electroblot (Bio-Rad Laboratories). Specific proteins were detected by immunoblotting with the indicated antibodies (Table 4); immunoreactive proteins were detected by enhanced chemiluminescence (Thermo Scientific) on a ChemiDoc XRS+ (Bio-Rad Laboratories).
# SW1736 = experiment: Cell growth with STAT1 activator 2-NP; format: cell-based, human; details: 0-50 μM 2-NP, 24 hours
# Description: (§1) Growth Assays. Cell growth was measured either through live cell imaging or by cell counting at discrete points. Live cell imaging was used to assess the growth kinetics of SW-EV and SW-TRβ. To perform live cell imaging, 5000 cells were plated per well in 24 well plates. After 24 hours in phenol red free, charcoal stripped media, media was supplemented with either 10^−8 M T3 or equivolume vehicle (NaOH). Every two hours cells were imaged with a Lionheart automated microscope (BioTek) and quantified with Gen5 software (BioTek). The cells entered the log phase of growth at approximately 48 hours, and the portion of the curve following this point was used to calculate the doubling time of the cells. In order to measure growth manually, 25,000 cells were plated per well in a six well plate. Cells were grown in full thyroid media with the addition of 2-(1,8-Naphthyridin-2-yl)phenol (2-NP) (Abcam) or vehicle (DMSO). Every 24 hours cell counts were assessed by hemocytometer.
# (§2) STAT1 has anti-proliferative activity, raising the question whether it can be exploited pharmacologically to reduce ATC growth. Baseline expression of key genes in the JAK1-STAT1 pathway and TR isoform levels (TRβ and TRα) in 3 additional anaplastic thyroid cancer cell lines are illustrated in FIG. 10C.
# OCUT-2 = experiment: Cell growth with STAT1 activator 2-NP; format: cell-based; details: 0-50 μM 2-NP, 24 hours
# Description: as §1, §2
# KTC-2 [8] = experiment: Cell growth with STAT1 activator 2-NP; format: cell-based; details: 0-50 μM 2-NP, 24 hours
# Description: as §1, §2
structure (smiles),measurement,setting,value
CC/C(=C(\c1ccccc1)c1ccc(OCCN(C)C)cc1)c1ccccc1 [tamoxifen],effect of inhibitor in the presence of GC-1,MCF7,enhanced the effect
"Nc1cc(C(F)(F)F)c(-c2cc(N3CCOCC3)nc(N3CCOCC3)n2)cn1 [Buparlisib, 5-(2,6-dimorpholin-4-ylpyrimidin-4-yl)-4-(trifluoromethyl)pyridin-2-amine]","wound closure, inhibitor combined with GC-1",[1],exception
same,"cell growth, combination with GC-1",[2],synergistic effect to reduce cell growth
same,toxicity to cells,[3]; 10 μM,toxic
same,cell viability,"[3]; SW-EV, buparlisib alone 0-10 μM",concentration dependent decrease in cell viability
same,sensitivity of cell growth to buparlisib,[3]; SW-TRβ plus GC-1 10^−8M,increase the sensitivity to buparlisib at 0.1 and 1 μM
same,"EC50, cell viability",[3]; SW-TRβ vs SW-EV,significantly reduced EC50
same,"mammosphere growth, Buparlisib in the presence of GC-1","[4]; 10 nM GC-1, 5 days",increases the efficacy of Buparlisib to reduced mammosphere growth
same,reduction of effective Buparlisib in the presence of GC-1,[4]; mammospheres from MDA-MB-468-TRβ cells,50%
same,metastases,KTC-2 [5],detectable metastases to the heart
same,tumor growth,KTC-2 [5],smaller non-nodular growth
"CC(=O)c1c(C)c2cnc(Nc3ccc(N4CCNCC4)cn3)nc2n(C2CCCC2)c1=O [Palbociclib, 6-acetyl-8-cyclopentyl-5-methyl-2-[(5-piperazin-1-ylpyridin-2-yl)amino]pyrido[6,5-d]pyrimidin-7-one]","cell growth, combination with GC-1",[2],synergistic effect to reduce cell growth
"O=c1cc(N2CCOCC2)oc2c(-c3ccccc3)cccc12 [LY294002, 2-(morpholin-4-yl)-8-phenyl-4H-chromen-4-one]",inhibition of ATC cell migration,[6],enhances LY294002 inhibition of ATC cell migration
same,reduction in growth,NthyOri,50%
same,EC50,"[7]; SW-1736, SW-EV (no TRβ re-expression), T3",5.21 µM
same,EC50,"[7]; SW-1736, SW-EV, unit inferred",5.21 µM
same,EC50,"[7]; SW-1736, SW-TRβ, liganded (T3)",1.13 µM
same,EC50,"[7]; SW-1736, SW-TRβ, liganded (T3), unit inferred",1.13 µM
same,pAkt vs total Akt and p mTOR vs total mTOR,PI3K,decreased pAkt compared with total Akt and decreased p mTOR compared with total mTOR
"Oc1ccccc1-c1ccc2cccnc2n1 [2-NP, 2-(1,8-naphthyridin-2-yl)phenol]",reduction in cell growth,SW1736,recapitulates the effect of T3-TRβ; also recorded: most responsive
same,reduction in cell growth,OCUT-2,recapitulates the effect of T3-TRβ
same,reduction in cell growth,KTC-2 [8],recapitulates the effect of T3-TRβ

# — US20230255974A1, “USE OF THYROMIMETICS FOR THE TREATMENT OF CANCER” (THE UNIVERSITY OF VERMONT, priority 2020, published 2023)
